Measured values as given in US6908942B2, “6-amino-2,2-dimethyl-3,4,6-trisubstituted benzopyran derivatives and their construction by parallel synthesis on solid-phase” (Korea Research Institute of Chemical Technology, priority 2002, dated 2005).

test system: lipid peroxidation induced by iron; test: Inhibitory effect on iron-induced lipid peroxidation in rat brain homogenate (MDA measurement, N-methyl-2-phenylindole, Bioxytech LPO-586 Kit); format: biochemical; settings: FeCl2 400 μM, 30 min at 37° C., decrease of MDA vs DMSO control, absorption at 586 nm
Protocol: The inhibitory effect of the present compounds on lipid peroxidation induced by iron was evaluated as follows:
Rat brain was homogenized in Krebs buffer (15 mM HEPES, 10 mM glucose, 140 mM NaCl, 3.6 mM KCl, 1.5 mM CaCl2, 1.4 mM KH2PO4 and 0.7 mM MgCl, pH 7.4) and centrifuged at 12,000 rpm to obtain the supernatant serving as a raw material of lipid. To the brain homogenates, FeCl^2 was added to give a final concentration of 400 μM and allowed to stand for 30 min at 37° C. for promoting oxidation. Each of the compounds to be tested was added to give a concentration of 12.5 μM and a control group was solely added with dimethylsulfoxide (DMSO).
When iron is added to brain homogenates, oxidation is promoted to increase the amount of malondialdehyde (MDA) as lipid peroxidation product. Therefore, in this Example, the level of lipid peroxidation was evaluated according to MDA measurement method. In general MDA measurement, the test sample is reacted with TBA (2-thiobarbituric acid) and the absorbance at 530 nm was measured. However, since such process includes a boiling step, it is unsuitable for dealing with test samples in large quantity. Therefore, in this Example, N-methyl-2-phenylindole was used as a color developing reagent in place of TBA so as to avoid boiling step. […] The inhibitory effect on lipid peroxidation of test compounds was evaluated by calculating the decreased level of MDA in percentage based on the amount of MDA in the control group. For the test compounds showing more than 80% inhibitory effect, the concentration-lipid peroxidation inhibition curves were plotted with reference to the decrease rate of MDA amount based on the amount of MDA in the control group and their IC50 values was calculated through least linear regression analysis.
In addition, the representative antioxidants commercialized such as Promethazine, Trolox, Probucol and N-propyl gallate were examined in terms of 50% inhibition concentration (IC50) according to the above procedure and the results are shown in Table 4.

First: C/C=C/COC1C(OCCCC)c2cc(NCc3ccc(F)cc3)ccc2OC1(C)C (stereo not drawn) [Compound 5-510]
Second: C=CCOC1C(OCCCC)c2cc(NCc3ccc(F)cc3)ccc2OC1(C)C (stereo not drawn) [Compound 5-511]
The IC50 of the first is 79-fold higher: 9.45 µM for the first, 0.12 µM for the second.

First: C#CCOC1C(OCCCC)c2cc(NCc3ccc(F)cc3)ccc2OC1(C)C (stereo not drawn) [Compound 5-512]
Second: CCCCOC1c2cc(NCc3ccc(F)cc3)ccc2OC(C)(C)C1OC(=O)c1cccs1 (stereo not drawn) [Compound 5-1799]
The IC50 of the first is 1.7-fold lower: 3.6 µM for the first, 6.01 µM for the second. The first is the more potent here.

First: CC1(C)Oc2ccc(NCc3ccc(F)cc3)cc2C(OCc2ccccc2)C1OCc1ccc(F)cc1 (stereo not drawn) [Compound 5-514]
Second: CC1(C)Oc2ccc(NCc3ccc(F)cc3)cc2C(OCc2ccccc2)C1OC(=O)c1ccc(F)cc1 (stereo not drawn) [Compound 5-1808]
The IC50 of the first is 1.7-fold lower: 2.39 µM for the first, 3.97 µM for the second. The first is the more potent here.

CC1(C)Oc2ccc(NCc3ccc(F)cc3)cc2C(OCc2ccccc2)C1OCc1cccc(Cl)c1 (stereo not drawn) [Compound 5-519] and CC1(C)Oc2ccc(NCc3ccc(F)cc3)cc2C(OCc2ccccc2)C1OC(=O)c1ccco1 (stereo not drawn) [Compound 5-1810] are within 1.5-fold of each other in IC50: 4.6 µM for the first, 4.34 µM for the second.

COC1c2cc(NCc3ccc(C)cc3)ccc2OC(C)(C)C1OCc1ccc(F)cc1 (stereo not drawn) [Compound 5-562] and COC1c2cc(NCc3ccc(C)cc3)ccc2OC(C)(C)C1OCc1cccc(F)c1 (stereo not drawn) [Compound 5-564] are within 1.5-fold of each other in IC50: 6.47 µM for the first, 4.33 µM for the second.

Going from COC1c2cc(NCc3ccc(C)cc3)ccc2OC(C)(C)C1OCc1ccccc1Cl (stereo not drawn) [Compound 5-566] to COC1c2cc(NCc3ccc(C)cc3)ccc2OC(C)(C)C1OC(=O)c1ccccc1 (stereo not drawn) [Compound 5-1835], the IC50 falls from 5.73 µM to 1.14 µM (5-fold). The second is the more potent here.

CNc1ccc2c(c1)C(OC)C(OC(=O)CC(C)(C)C)C(C)(C)O2 (stereo not drawn) [Compound 5-1482] and CCNc1ccc2c(c1)C(OC)C(OC(=O)CC(C)(C)C)C(C)(C)O2 (stereo not drawn) [Compound 5-1552] are within 1.5-fold of each other in IC50: 5.27 µM for the first, 5.43 µM for the second.

CNc1ccc2c(c1)C(OC)C(OC(=O)C1CCCCC1)C(C)(C)O2 (stereo not drawn) [Compound 5-1483] and CCNc1ccc2c(c1)C(OCC)C(OC(=O)C1CCCCC1)C(C)(C)O2 (stereo not drawn) [Compound 5-1563] are within 1.5-fold of each other in IC50: 2.39 µM for the first, 2.05 µM for the second.

CNc1ccc2c(c1)C(OC)C(OC(=O)c1cccs1)C(C)(C)O2 (stereo not drawn) [Compound 5-1489] and CNc1ccc2c(c1)C(OC)C(OC(=O)c1ccco1)C(C)(C)O2 (stereo not drawn) [Compound 5-1490] are within 1.5-fold of each other in IC50: 3.33 µM for the first, 3.04 µM for the second.

First: CCCCOC1c2cc(NC)ccc2OC(C)(C)C1OC(=O)c1ccccc1 (stereo not drawn) [Compound 5-1515]
Second: CCCCOC1c2cc(NC)ccc2OC(C)(C)C1OC(=O)c1ccc(C)cc1 (stereo not drawn) [Compound 5-1516]
The IC50 of the first is 2.8-fold lower: 2.23 µM for the first, 6.34 µM for the second.

CCCCOC1c2cc(NC)ccc2OC(C)(C)C1OC(=O)c1ccco1 (stereo not drawn) [Compound 5-1520] and CCNc1ccc2c(c1)C(OCC)C(OC(=O)c1ccco1)C(C)(C)O2 (stereo not drawn) [Compound 5-1570] are within 1.5-fold of each other in IC50: 3.1 µM for the first, 3.03 µM for the second.

CCNc1ccc2c(c1)C(OC)C(OC(=O)c1ccc(F)cc1)C(C)(C)O2 (stereo not drawn) [Compound 5-1558] and CCNc1ccc2c(c1)C(OCC)C(OC(=O)c1ccc(F)cc1)C(C)(C)O2 (stereo not drawn) [Compound 5-1568] are within 1.5-fold of each other in IC50: 3.37 µM for the first, 4.09 µM for the second.

CCNc1ccc2c(c1)C(OC)C(OC(=O)c1ccco1)C(C)(C)O2 (stereo not drawn) [Compound 5-1560] and COC1c2cc(NCc3ccc(F)cc3)ccc2OC(C)(C)C1OC(=O)c1ccco1 (stereo not drawn) [Compound 5-1770] are within 1.5-fold of each other in IC50: 2.31 µM for the first, 3.11 µM for the second.

CCNc1ccc2c(c1)C(OCC)C(OC(C)=O)C(C)(C)O2 (stereo not drawn) [Compound 5-1561] and CCNc1ccc2c(c1)C(OCC)C(OC(=O)CC(C)(C)C)C(C)(C)O2 (stereo not drawn) [Compound 5-1562] are within 1.5-fold of each other in IC50: 2.89 µM for the first, 3.03 µM for the second.

Going from CCNc1ccc2c(c1)C(OCC)C(OC(=O)c1cccs1)C(C)(C)O2 (stereo not drawn) [Compound 5-1569] to COC1c2cc(NCc3ccc(C)cc3)ccc2OC(C)(C)C1OC(=O)c1cccs1 (stereo not drawn) [Compound 5-1839], the IC50 falls from 3.41 µM to 1.07 µM (3.2-fold).

First: COC1c2cc(NCc3ccc(F)cc3)ccc2OC(C)(C)C1OC(=O)CC(C)(C)C (stereo not drawn) [Compound 5-1762]
Second: COC1c2cc(NCc3ccc(C)cc3)ccc2OC(C)(C)C1OC(=O)CC(C)(C)C (stereo not drawn) [Compound 5-1832]
The IC50 of the first is 1.7-fold higher: 1.8 µM for the first, 1.09 µM for the second. The second is the more potent here.

First: COC1c2cc(NCc3ccc(F)cc3)ccc2OC(C)(C)C1OC(=O)c1ccccc1 (stereo not drawn) [Compound 5-1765]
Second: COC1c2cc(NCc3ccc(F)cc3)ccc2OC(C)(C)C1OC(=O)c1ccc(F)cc1 (stereo not drawn) [Compound 5-1768]
The IC50 of the first is 1.9-fold higher: 5.13 µM for the first, 2.73 µM for the second. The second is the more potent here.

Compared with COc1ccc(C(=O)OC2C(OC)c3cc(NCc4ccc(F)cc4)ccc3OC2(C)C)cc1 (stereo not drawn) [Compound 5-1767], COc1ccc(C(=O)OC2C(OC)c3cc(NCc4ccc(C)cc4)ccc3OC2(C)C)cc1 (stereo not drawn) [Compound 5-1837] is 1.6-fold higher in IC50: 2.63 µM for the first, 4.25 µM for the second. The first is the more potent here.

COC1c2cc(NCc3ccc(F)cc3)ccc2OC(C)(C)C1OC(=O)c1cccs1 (stereo not drawn) [Compound 5-1769] and CC1(C)Oc2ccc(NCc3ccc(F)cc3)cc2C(OCc2ccccc2)C1OC(=O)c1cccs1 (stereo not drawn) [Compound 5-1809] are within 1.5-fold of each other in IC50: 5.97 µM for the first, 6.36 µM for the second.

Going from CCCCOC1c2cc(NCc3ccc(F)cc3)ccc2OC(C)(C)C1OC(=O)c1ccc(OC)cc1 (stereo not drawn) [Compound 5-1797] to COC1c2cc(NCc3ccc(C)cc3)ccc2OC(C)(C)C1OC(=O)c1ccc(F)cc1 (stereo not drawn) [Compound 5-1838], the IC50 falls from 3.56 µM to 1.31 µM (2.7-fold).

Going from CCCCOC1c2cc(NCc3ccc(F)cc3)ccc2OC(C)(C)C1OC(=O)c1ccco1 (stereo not drawn) [Compound 5-1800] to CC1(C)Oc2ccc(NCc3ccc(F)cc3)cc2C(OCc2ccccc2)C1OC(=O)c1ccco1 (stereo not drawn) [Compound 5-1840], the IC50 falls from 3.9 µM to 1.03 µM (3.8-fold).

CC(C)(C)CC(=O)OC1C(OCc2ccccc2)c2cc(NCc3ccc(F)cc3)ccc2OC1(C)C (stereo not drawn) [Compound 5-1802] and Cc1ccc(C(=O)OC2C(OCc3ccccc3)c3cc(NCc4ccc(F)cc4)ccc3OC2(C)C)cc1 (stereo not drawn) [Compound 5-1806] are within 1.5-fold of each other in IC50: 4.12 µM for the first, 5.85 µM for the second.

First: COC1c2cc(NCc3ccc(C)cc3)ccc2OC(C)(C)C1OC(C)=O (stereo not drawn) [Compound 5-1831]
Second: COC1c2cc(NCc3ccc(C)cc3)ccc2OC(C)(C)C1OC(=O)C=C(C)C (stereo not drawn) [Compound 5-1834]
The IC50 of the first is 2.1-fold higher: 2.71 µM for the first, 1.29 µM for the second. The second is the more potent here.

Going from COC1c2cc(NCc3ccc(C)cc3)ccc2OC(C)(C)C1OC(=O)c1ccc(C)cc1 (stereo not drawn) [Compound 5-1836] to Cc1c(C)c2c(c(C)c1O)CCC(C)(C(=O)O)O2 (stereo not drawn) [Trolox, reference compound], the IC50 rises from 1.16 µM to 24.6 µM (21-fold).

CCCOC(=O)c1cc(O)c(O)c(O)c1 [N-propyl gallate, reference compound] and CC(C)(Sc1cc(C(C)(C)C)c(O)c(C(C)(C)C)c1)Sc1cc(C(C)(C)C)c(O)c(C(C)(C)C)c1 [Probucol, reference compound] are within 1.5-fold of each other in IC50: 25 µM for the first, 18.2 µM for the second.

CC(CN1c2ccccc2Sc2ccccc21)N(C)C (stereo not drawn) [Promethazine, reference compound] showed an IC50 of 10.2 µM.
